According to patent US20260078114A1, “COMPOUND USED AS INHIBITOR OF CDK4 KINASE AND USE THEREOF” (TYK MEDICINES, INC., priority 2022, published 2026):
pIC50: −log10 of the molar value.

Assays:
[1] = test system: Human breast cancer cell MCF-7; assay: Cellular antiproliferative assay (MTT, 5 days), MCF-7; type: cell-based; details: Homo sapiens, MCF7, 120 h, MCF-7 cells, 5 days incubation
Description: (§1) Human breast cancer cell MCF-7, ovarian cancer cell A2780, human mantle cell lymphoma cell JEKO-1. DMEM medium (Bio-Channel), DMSO (dimethyl sulfoxide), MTT (thiazolyl blue), 0.25% EDTA-Tripsin (tryptic digest), 1×PBS (phosphate buffer, PH7.2), 96-well plate (Corning), fetal bovine serum (FBS), 10,000 U/mL penicillin-G/streptomycin, high-speed cryo-centrifuge (EPPENDORF 5810R), enzyme-linked immunoassay (Tecan Spark).
(§2) • A) Tumor cells were cultured in DMEM (high sugar with 10% FBS and 100 U/mL penicillin-G/streptomycin) at 37° C., 5% CO2 and saturated humidity until 80-90% dense. • B) Removed the culture medium from 10 cm Petri dishes; • C) Rinsed the cells once with 10 ml 1×PBS; • D) Added 4 ml 0.25% EDTA-Tripsin into 37° C., 5% CO2 incubator for trypsin digestion for 5 minutes, transferred to 15 ml centrifuge tube, centrifuged at 200 g for 5 minutes, discarded the supernatant to get cell precipitate; • E) Resuspended with 4 ml DMEM medium, counted and adjust to 50,000 cells/ml. • F) Added cell suspension to 96-well plate with 100 μL per well volume and incubated overnight at 37° C., 5% CO2 incubator.
(§3) • A) Preparation of gradient dilution solution of the tested compound: the test compound was configured into 1 mM reservoir solution.
(§4) • A) Taking the cell culture plate and adding 10 μL of 5 mg/ml MTT in the biosafety cabinet; • B) Putting the cell culture plate back into the incubator and continued incubation for 3 hours; • C) Taking the cell culture plate and removing the culture medium, adding 100 μL isopropanol (containing 0.4 mM HCl, 0.1% NP-40), and shaking the bed at room temperature for 30 min; and • D) Determining the absorbance value by selecting 570 nm on a TECAN enzyme-linked immunoassay detector.
(§5) The % Cell Viability was calculated using the following formula:
(§6) [formula] • Lum_HC: 0.1% DMSO control cell reading • Lum_Sample: cell readings with compound added • Lum_LC: Blank medium reading

[2] = test system: ovarian cancer cell A2780; assay: Cellular antiproliferative assay (MTT, 5 days), A2780; type: cell-based, human; details: Homo sapiens, 120 h, A2780 cells, 5 days incubation
Description: as §1, §2, §3, §4, §5, §6

[3] = test system: human mantle cell lymphoma cell JEKO-1; assay: Cellular antiproliferative assay (MTT, 5 days), JEKO-1; type: cell-based; details: Homo sapiens, 120 h, JEKO-1 cells, 5 days incubation
Description: as §1, §2, §3, §4, §5, §6

## CC1CCN(C)c2nc3c(F)cc(-c4nc(N[C@@H]5CCOC[C@H]5O)ncc4Cl)cc3n21 (mixture of isomers) [TB-44, (3S,4R)-4-((5-chloro-4-(9-fluoro-1,4-dimethyl-1,2,3,4-tetrahydrobenzo[4,5]imidazo[1,2-a]pyrimidin-7-yl)pyrimidin-2-yl)amino)tetrahydro-2H-pyran-3-ol]
[1]
  pIC50: ≥ 6.30
[2]
  pIC50: ≥ 6.30
[3]
  pIC50: ≥ 6.30

## CC(C)n1c(N2CCOC2=O)nc2c(F)cc(-c3nc(N[C@@H]4CCOC[C@H]4O)ncc3Cl)cc21 [TA-55]
[1]
  pIC50: ≥ 6.30
[2]
  pIC50: ≥ 6.30
[3]
  pIC50: ≥ 6.30

## CC(C)n1c(N(C)C)nc2c(F)cc(-c3nc(N[C@@H]4CCOC[C@H]4O)ncc3Cl)cc21 [TB-1]
[1]
  pIC50: ≥ 6.30
[2]
  pIC50: ≥ 6.30
[3]
  pIC50: ≥ 6.30

## CC(C)n1c(N(C)C)nc2c(F)cc(-c3nc(NC4CCOCC4)ncc3Cl)cc21 [TB-2, 6-(5-chloro-2-((tetrahydro-2H-pyran-4-yl)amino)pyrimidin-4-yl)-4-fluoro-1-isopropyl-N,N-dimethyl-1H-benzo[d]imidazol-2-amine]
[1]
  pIC50: ≥ 6.30
[2]
  pIC50: ≥ 6.30
[3]
  pIC50: ≥ 6.30

## CC(C)n1c(N(C)C)nc2c(F)cc(-c3nc(NC4CCN(S(C)(=O)=O)CC4)ncc3Cl)cc21 [TB-3, 6-(5-chloro-2-((1-(methylsulfonyl)piperidin-4-yl)amino)pyrimidin-4-yl)-4-fluoro-1-isopropyl-N,N-dimethyl-1H-benzo[d]imidazol-2-amine]
[1]
  pIC50: ≥ 6.30
[2]
  pIC50: ≥ 6.30
[3]
  pIC50: ≥ 6.30

## CC(C)n1c(N(C)C)nc2c(F)cc(-c3nc(N[C@H]4CC[C@H](NS(C)(=O)=O)CC4)ncc3Cl)cc21 [TB-5]
[1]
  pIC50: ≥ 6.30
[2]
  pIC50: ≥ 6.30
[3]
  pIC50: ≥ 6.30

## CC(C)n1c(N2CC[C@H](O)C2)nc2c(F)cc(-c3nc(N[C@@H]4CCOC[C@H]4O)ncc3Cl)cc21 [TB-6, (S)-1-(6-(5-chloro-2-(((3S,4R)-3-hydroxytetrahydro-2H-pyran-4-yl)amino)pyrimidin-4-yl)-4-fluoro-1-isopropyl-1H-benzo[d]imidazol-2-yl)pyrrolidin-3-ol]
[1]
  pIC50: 5.70 to 6.30
[2]
  pIC50: ≥ 6.30
[3]
  pIC50: ≥ 6.30

## CC(C)n1c(N2CC[C@@H](O)C2)nc2c(F)cc(-c3nc(N[C@@H]4CCOC[C@H]4O)ncc3Cl)cc21 [TB-7, (R)-1-(6-(5-chloro-2-(((3S,4R)-3-hydroxytetrahydro-2H-pyran-4-yl)amino)pyrimidin-4-yl)-4-fluoro-1-isopropyl-1H-benzo[d]imidazol-2-yl)pyrrolidin-3-ol]
[1]
  pIC50: ≥ 6.30
[2]
  pIC50: ≥ 6.30
[3]
  pIC50: ≥ 6.30

## COC(=O)N(C)c1nc2c(F)cc(-c3nc(N[C@@H]4CCOC[C@H]4O)ncc3Cl)cc2n1C(C)C [TB-8, methyl (6-(5-chloro-2-(((3S,4R)-3-hydroxytetrahydro-2H-pyran-4-yl)amino)pyrimidin-4-yl)-4-fluoro-1-isopropyl-1H-benzo[d]imidazol-2-yl)(methyl)carbamate]
[1]
  pIC50: 5.70 to 6.30
[2]
  pIC50: ≥ 6.30
[3]
  pIC50: ≥ 6.30

## CC(C)n1c(N(C)CCO)nc2c(F)cc(-c3nc(N[C@@H]4CCOC[C@H]4O)ncc3Cl)cc21 [TB-9, (3S,4R)-4-((5-chloro-4-(4-fluoro-2-((2-hydroxyethyl)(methyl)amino)-1-isopropyl-1H-benzo[d]imidazol-6-yl)pyrimidin-2-yl)amino)tetrahydro-2H-pyran-3-ol]
[1]
  pIC50: 5.70 to 6.30
[2]
  pIC50: ≥ 6.30
[3]
  pIC50: ≥ 6.30

## CC(C)n1c(N2CCCC2)nc2c(F)cc(-c3nc(N[C@@H]4CCOC[C@H]4O)ncc3Cl)cc21 [TB-11, (3S,4R)-4-((5-chloro-4-(4-fluoro-1-isopropyl-2-(pyrrolidin-1-yl)-1H-benzo[d]imidazol-6-yl)pyrimidin-2-yl)amino)tetrahydro-2H-pyran-3-ol]
[1]
  pIC50: ≥ 6.30
[2]
  pIC50: ≥ 6.30
[3]
  pIC50: ≥ 6.30

## CC(C)n1c(N(C)C)nc2c(F)cc(-c3nc(N[C@@H]4CCN(S(C)(=O)=O)C[C@H]4O)ncc3Cl)cc21 [TB-13, (3R,4R)-4-((5-chloro-4-(2-(dimethylamino)-4-fluoro-1-isopropyl-1H-benzo[d]imidazol-6-yl)pyrimidin-2-yl)amino)-1-(methylsulfonyl)piperidin-3-ol]
[1]
  pIC50: ≥ 6.30
[2]
  pIC50: ≥ 6.30
[3]
  pIC50: ≥ 6.30

## CC(C)n1c(N2CC(O)C2)nc2c(F)cc(-c3nc(N[C@@H]4CCOC[C@H]4O)ncc3Cl)cc21 [TB-14, 1-(6-(5-chloro-2-(((38,4R)-3-hydroxytetrahydro-2H-pyran-4-yl)amino)pyrimidin-4-yl)-4-fluoro-1-isopropyl-1H-benzo[d]imidazol-2-yl)azetidin-3-ol]
[1]
  pIC50: ≥ 6.30
[2]
  pIC50: ≥ 6.30
[3]
  pIC50: ≥ 6.30

## CCN1CCN(Cc2ccc(Nc3ncc(Cl)c(-c4cc(F)c5nc(N(C)C)n(C(C)C)c5c4)n3)nc2)CC1 [TB-16]
[1]
  pIC50: ≥ 6.30
[2]
  pIC50: ≥ 6.30
[3]
  pIC50: ≥ 6.30

## COc1cc(N2CCNCC2)ccc1Nc1ncc(Cl)c(-c2cc(F)c3nc(N(C)C)n(C(C)C)c3c2)n1 [TB-17, 6-(5-chloro-2-((2-methoxy-4-(piperazin-1-yl)phenyl)amino)pyrimidin-4-yl)-4-fluoro-1-isopropyl-N,N-dimethyl-1H-benzo[d]imidazol-2-amine]
[1]
  pIC50: 5.70 to 6.30
[2]
  pIC50: 5.70 to 6.30
[3]
  pIC50: 5.70 to 6.30

## CC(C)n1c(N(C)C)nc2c(F)cc(-c3nc(Nc4ccc(N5CCNCC5)cn4)ncc3Cl)cc21 [TB-18, 6-(5-chloro-2-((5-(piperazin-1-yl)pyridin-2-yl)amino)pyrimidin-4-yl)-4-fluoro-1-isopropyl-N,N-dimethyl-1H-benzo[d]imidazol-2-amine]
[1]
  pIC50: ≥ 6.30
[2]
  pIC50: ≥ 6.30
[3]
  pIC50: ≥ 6.30

## CC(C)n1c(N2CCCOC2=O)nc2c(F)cc(-c3nc(N[C@@H]4CCOC[C@H]4O)ncc3Cl)cc21 [TB-25]
[1]
  pIC50: 5.70 to 6.30
[2]
  pIC50: ≥ 6.30
[3]
  pIC50: ≥ 6.30

## CC(C)n1c(N2CCOC2=O)nc2c(F)cc(-c3nc(NC4CCN(S(C)(=O)=O)CC4)ncc3Cl)cc21 [TB-26]
[1]
  pIC50: ≥ 6.30
[2]
  pIC50: ≥ 6.30
[3]
  pIC50: ≥ 6.30

## CC(C)n1c(N2CCOC2=O)nc2c(F)cc(-c3nc(NC4CCN(S(C)(=O)=O)CC4)ncc3F)cc21 [TB-28]
[1]
  pIC50: ≥ 6.30
[2]
  pIC50: ≥ 6.30
[3]
  pIC50: ≥ 6.30

## CC(C)n1c(N2CCOC2=O)nc2c(F)cc(-c3nc(NC4CCN(S(=O)(=O)C(C)C)CC4)ncc3Cl)cc21 [TB-32]
[1]
  pIC50: ≥ 6.30
[2]
  pIC50: ≥ 6.30
[3]
  pIC50: ≥ 6.30

## CC(C)n1c(N2CCOC2=O)nc2c(F)cc(-c3nc(NC4CCN(S(=O)(=O)C5CC5)CC4)ncc3Cl)cc21 [TB-33]
[1]
  pIC50: ≥ 6.30
[2]
  pIC50: ≥ 6.30
[3]
  pIC50: ≥ 6.30

## CC(C)n1c(N2CCOC2=O)nc2c(F)cc(-c3nc(NC4CCN(S(C)(=O)=O)CC4(F)F)ncc3Cl)cc21 (stereo not drawn) [TB-35]
[1]
  pIC50: ≥ 6.30
[2]
  pIC50: ≥ 6.30
[3]
  pIC50: ≥ 6.30

## CC(C)n1c(N2CCOC2=O)nc2c(F)cc(-c3nc(Nc4ccc(S(=O)(=O)NCCN(C)C)cc4)ncc3Cl)cc21 [TB-38, 4-((5-chloro-4-(4-fluoro-1-isopropyl-2-(2-oxooxazolidin-3-yl)-1H-benzo[d]imidazol-6-yl)pyrimidin-2-yl)amino)-N-(2-(dimethylamino)ethyl)benzenesulfonamide]
[1]
  pIC50: ≥ 6.30
[2]
  pIC50: ≥ 6.30
[3]
  pIC50: ≥ 6.30

## CN1CCCn2c1nc1c(F)cc(-c3nc(N[C@@H]4CCOC[C@H]4O)ncc3Cl)cc12 [TB-40]
[1]
  pIC50: ≥ 6.30
[2]
  pIC50: ≥ 6.30
[3]
  pIC50: ≥ 6.30
